“Also recorded” adds a separate entry of the source. Where two headings read alike, the source gives them in different places.
How the values were obtained:
[1] = system: PC3-LN4 cells; assay: P-body (PB) number in PC3-LN4 GFP-EDC3 cells; assay type: cell-based, human; conditions: 6 h
Description: (§1) FIGS. 7A-7I show inhibition of VBT5445 (VBT) on Pim1 and EDC3 binding and phosphorylation. FIG. 7A: In vitro co-precipitation (Co-PPT) assay was performed with recombinant EDC3 and biotinylated Pim1 using Streptavidin beads with increasing concentrations of the Pim inhibitor VBT5445 (VBT). FIG. 7B: Kinase assays were performed with recombinant EDC3 and Pim1 with increasing concentrations of VBT. FIG. 7C: Cell lysates from PC3-LN4 cells cultured with DMSO, 10 μM VBT, 3 μM AZD5363 (AKTi) and the combination for 6 hrs were subjected to western blotting (WB). […] WBs were performed using the indicated antibodies. FIG. 7E: PC3-LN4 cells were seeded into 48 well plate and incubated with either DMSO, VBT, AZD5363 or the combination, for 4.5 days. A real-time imaging system (IncuCyte™) was used to measure cell proliferation using a non-label cell monolayer confluence approach. FIG. 7F-7H: GFP image in PC3 LN4 GFP EDC3 expressing cells treated with PIMi: VBT (5 μM) and VBT (5 μM)+AZD5363 (3 μM) for 6 hrs.
To measure PB numbers, PC3-LN4 PCa cells containing a CRISPR/Cas total knock-out of EDC3 were stably transduced with GFP-EDC3. When localized in PBs, GFP spots could be quantified. PBs were quantified at the University of Colorado Center for Drug Discovery using an Opera Phenix Plus high content screening system (PerkinElmer) Perkin Elmer G3 robotic system after drug treatment. Assays were carried out in quadruplicate and the mean number of PBs per cell and cell area calculated. An example of this assay is shown using […] buffered saline (HBSS) to induce PB formation.
Immunofluorescence: Immunofluorescence (IF) staining was performed on PC3-LN4 cells stably expressing EDC3-GFP. 1×10^4 cells were seeded in each chamber of an 8 well chamber slide (Nunc Lab-Tek II Chamber Slide System, Life Technologies) and cultured for 48 h. After attaching to the chamber slides cells were treated with DMSO, VB-5445 ([…]), AZD5363 (3 μM), or the combination for 6 h. Cells were then fixed with 4% paraformaldehyde in PBS for 15 min and subsequently permeabilized with 0.2% Triton X-100 in PBS. Cells were stained with diluted DAPI (1:4000) in 1% nor-mal goat serum in PBS. Cells were mounted with Prolong Gold Antifade mounting medium (Molecular Probes).

[2] = system: T-cell acute lymphoblastic leukemia cell line DU528; assay: Cell viability (XTT) assay in T-ALL cells; assay type: cell-based; conditions: 72 h, listed as VBT 1-34
Description: Cell viability (XTT) assay: T-ALL cells were seeded into 96 well plates at a density of 20,000 cells per well and treated with VBT-5445 for 72 h, using DMSO as control. Cell viability was measured using XTT cell proliferation assay (Trevigen Cat #4891-025-K) following the manufacturer's protocol. Briefly, XTT reagent was added to cell culture after the treatment and incubated for 4 h at 37° C. and 5% CO2. The absorbance of the colored formazan product was measured at 450 nm.

[3] = system: PC3-LN4 cells; assay: Western blotting of PC3-LN4 cell lysates; assay type: cell-based, human
Description: as §1, with “FIG.” for “FIGS. 7A-7I show inhibition of VBT5445 (VBT) on Pim1 and EDC3 binding and phosphorylation. FIG.”
Extracts were subjected to Western blotting with the indicated antibodies.
(§2) Immunoblotting: Western blots were performed as described previously. Briefly, protein lysates (30 μg) were subjected to SDS-PAGE and transferred to nitrocellulose membranes. After blocking with 5% milk in TBST buffer for 30 min at room temperature, the membranes were incubated overnight at 4° C. with the Indicated primary antibody in 3% BSA in TBST. Specific proteins were detected with the corresponding HRP conjugated secondary antibody using enhanced chemiluminescence (GE Lifesciences, Piscataway, NJ).

[4] = system: mTORC; assay: Phosphorylation of mTORC substrates in PANC1 cells (Western blot); assay type: cell-based; conditions: overnight incubation
Description: as §2
Because of ease of growth, PANC1 pancreatic cancer cells were used to test the activity of derivatives of VBT-5445 (FIG. 14). […] Using a doxycycline inducible Pim kinase vector in these tumor cells, this inhibition of phosphorylation was proportional to the level of Pim in these cells (FIG. 9). […] Inhibition of mTORC1 is known to stimulate the feedback activation of mTORC2 leading to AKT phosphorylation. […] The effect of these compounds on mTORC1 and 2 was still evident in PC3-LN4 cells that contained a knockout (KO) using CRISPR/CAS9 of either TSC2 or DEPDC5 (FIG. 12, lanes 4-9). TSC2 KO activated the Rheb GTPase while DEPDC5 KO activated the RAG GTPase both of which stimulate mTORC1 activity. Thus, GRG compounds were capable of inhibiting mTORC1 activity even when this kinase was highly activated.

[5] = system: Prostate Cancer Growth; assay: SAR studies using inhibition of prostate cancer growth as a readout; assay type: cell-based; conditions: SAR by substituent position
[6] = system: A549 lung cancer; assay: A549 lung cancer growth (crystal violet, 7 days); assay type: cell-based; conditions: 7 days of growth
Description: (§3) Cells were plated at 1000 cells per well and 24 h later treated with GRG compounds. After 7 days of growth, tumor cells were fixed with 4% paraformaldehyde, stained with 0.5% crystal violet in methanol and lysed in SDS. The absorbance of six samples treated with each compound or DMSO control was read at 570 nm. The error bars represent the Standard Deviation of these measurements

[7] = system: DU145 prostate cancer; assay: DU145 prostate cancer growth (crystal violet, 7 days); assay type: cell-based; conditions: 7 days of growth
Description: as §3
Cell growth was measured as in FIG. 17.

## O=c1c(CNCc2cc(Br)ccn2)cc2ccc(Cl)cc2n1CCOc1ccccc1 [GRG-1-34, 3-((((4-bromopyridin-2-yl)methyl)amino)methyl)-7-chloro-1-(2-phenoxyethyl) quinolin-2 (1H)-one]
[1]; combination with AZD5363 (3 μM), listed as VBT 1-34
  number of P-bodies, with AKT inhibitor AZD5363 added: further increased the number of P-bodies; also recorded: further increases P-bodies
[1]; compound alone
  number of P-bodies: increases the number of P-bodies
[2]
  growth of T-acute lymphoblastic leukemia cells: inhibits the growth; also recorded: shows activity
[3]
  cellular level of Pim kinases: decreases
  cellular level of c-Myc protein: decreases
  mTORC1 activity: phosphorylation of the S6 protein: inhibited the phosphorylation of the mTORC1 substrate S6 protein
  phosphorylation of AKT on serine 473: increased the phosphorylation of AKT on serine 473
[3]; listed as VBT 1-34
  mTORC1 activity: phosphorylation of the S6 protein: decreases
[4]; FIG. 19
  block of phosphorylation of mTORC substrates (AKT, 4E-BP1, S6): block the phosphorylation of mTORC substrates
[4]; FIG. 19, listed as VBT 1-34
  block of phosphorylation of mTORC substrates (AKT, 4E-BP1, S6): inhibit phosphorylation of mTORC substrates
[5]
  Activity (inhibition of prostate cancer growth): 6 active compounds
[6]
  A549 lung cancer growth: Inhibition
[6]; listed as VBT 1-34
  A549 lung cancer growth: shows activity
[7]
  DU145 prostate cancer growth: Inhibition
[7]; listed as VBT 1-34
  DU145 prostate cancer growth: shows activity

From patent US20250129045A1, “SMALL MOLECULE PIM AND MTOR KINASE INHIBITOR AND METHODS OF USE THEREOF” (Arizona Board of Regents on Behalf of the University of …, priority 2022, published 2025)
